Source: patent publication US11613546B2, “Substituted pyridotriazine compounds and uses thereof” (Gilead Sciences, Inc., priority 2021, dated 2023)
Like-named read-outs stand apart in the source and are kept apart here.

Legend:
Type in all cases: cell-based
MT-4 cells = test: Cytotoxicity assay in MT-4 cells
Procedure, shortened: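 Uninfected MT-4 cells were incubated with 1:3 serially diluted compound in RPMI/10% FBS for 5 days at 37° C. Viability was read by CellTiter-Glo luminescence, with 10 μM puromycin as the baseline cytotoxicity control. Values are the concentration giving a 50% decrease in luminescence, from sigmoidal dose-response fits.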

pLai RLuc reporter virus = test: HIV MT-4 serum shift antiviral reporter assay
Procedure, shortened: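 MT-4 cells pre-infected with pLai RLuc virus for 2 h at 37 °C, then incubated 72 h at 37 °C with compound in medium (RPMI, 10% FBS) with or without 50% human serum; Renilla luminescence read. EC50 from sigmoidal fit; serum shift = EC50(HS/CCM)/EC50(CCM).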

HIV-1 (IIIB) = test: Antiviral assay in MT-4 cells; settings: HIV-1 IIIB infected MT-4 cells, 5 days, Cell Titer Glo, read-out: MT4 EC50
Procedure, shortened: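 MT-4 cells infected with a 1:250 dilution of HIV-1 IIIB stock were incubated with serially diluted (1:3) compound for 5 days at 37 °C. Viability read by Cell Titer Glo luminescence; EC50 is the concentration giving 50% decrease in signal, from sigmoidal dose-response fits.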

[1] = uninfected MT-4 cells, 5 days, Cell Titer Glo, read-out: CC50
[2] = read-out: RLUC 50% HS, HS/CCM: 50% human serum, 72 h, Renilla Glo
[3] = read-out: RLUC CCM, cell culture media (RPMI, 10% FBS), 72 h, Renilla Glo
[4] = Human immunodeficiency virus 1, IIIB, MT4, 120 h
[5] = HS/CCM: 50% human serum, 72 h, Renilla Glo, read-out: RLUC 50% HS
[6] = cell culture media (RPMI, 10% FBS), 72 h, Renilla Glo, read-out: RLUC CCM
[7] = Human immunodeficiency virus 1, 72 h, read-out: RLUC 50% HS (nM), HS/CCM: 50% human serum, 72 h, Renilla Glo
[8] = Human immunodeficiency virus 1, 72 h, read-out: RLUC CCM (nM), cell culture media (RPMI, 10% FBS), 72 h, Renilla Glo

Compound	CC50 (MT-4 cells; [1]) [nM]	EC50 (pLai RLuc reporter virus; [2]) [nM]	EC50 (pLai RLuc reporter virus; [3]) [nM]	EC50 (HIV-1 (IIIB); [4]) [nM]	EC50 (pLai RLuc reporter virus; [5]) [nM]	EC50 (pLai RLuc reporter virus; [6]) [nM]	EC50 (HIV-1 (IIIB)) [nM]	EC50 (pLai RLuc reporter virus; [7]) [nM]	EC50 (pLai RLuc reporter virus; [8]) [nM]	CC50 (MT-4 cells) [nM]
C[C@@H]1CCC[C@H](C)N2CN1n1cc(C(=O)NCc3c(F)cc(F)cc3F)c(=O)c(O)c1C2=O [Example C8, (1S,2R,6S)-9-hydroxy-2,6-dimethyl-8,10-dioxo-N-(2,4,6-trifluorobenzyl)-3,4,5,6,8,10-hexahydro-2H-1,7-methanopyrido[1,2-b][1,2,5]triazecine-11-carboxamide]	4720	16.4	0.55	1.8	–	–	–	–	–	–
C[C@@H]1C/C=C\CN2CN1n1cc(C(=O)NCc3ccc(F)cc3F)c(=O)c(O)c1C2=O [Example C10, (1R,2R,Z)—N-(2,4-difluorobenzyl)-9-hydroxy-2-methyl-8,10-dioxo-3,6,8,10-tetrahydro-2H-1,7-methanopyrido[1,2-b][1,2,5]triazecine-11-carboxamide]	7570	–	–	–	339	0.4	1.8	–	–	–
C[C@@H]1C/C=C\CN2CN1n1cc(C(=O)NCc3ccc(F)cc3F)c(=O)c(O)c1C2=O [Example C11, (1S,2R,Z)—N-(2,4-difluorobenzyl)-9-hydroxy-2-methyl-8,10-dioxo-3,6,8,10-tetrahydro-2H-1,7-methanopyrido[1,2-b][1,2,5]triazecine-11-carboxamide]	9930	–	–	–	7.32	0.27	1.1	–	–	–
C[C@@H]1CCC[C@H](C)N2CN1n1cc(C(=O)NCc3c(F)cc(F)cc3F)c(=O)c(O)c1C2=O [Example C14, (1R,2S,6R)-9-hydroxy-2,6-dimethyl-8,10-dioxo-N-(2,4,6-trifluorobenzyl)-3,4,5,6,8,10-hexahydro-2H-1,7-methanopyrido[1,2-b][1,2,5]triazecine-11-carboxamide]	8060	31.1	0.71	–	–	–	2	–	–	–
C[C@H]1/C=C\C[C@H](C)N2CN1C(=O)c1c(O)c(=O)c(C(=O)NCc3c(F)cc(F)cc3F)cn12 [Example C19, (1R,2S,6S,Z)-9-hydroxy-2,6-dimethyl-8,10-dioxo-N-(2,4,6-trifluorobenzyl)-3,6,8,10-tetrahydro-2H-1,7-methanopyrido[1,2-b][1,2,5]triazecine-11-carboxamide]	10200	–	–	–	60.3	0.41	1.1	–	–	–
C[C@@H]1CCC[C@H](C)N2CN1n1cc(C(=O)NCc3c(F)cc(F)cc3F)c(=O)c(O)c1C2=O [Example C21, (1R,2S,6S)-9-hydroxy-2,6-dimethyl-8,10-dioxo-N-(2,4,6-trifluorobenzyl)-3,4,5,6,8,10-hexahydro-2H-1,7-methanopyrido[1,2-b][1,2,5]triazecine-11-carboxamide]	11700	98.1	0.23	–	–	–	1.7	–	–	–
C[C@H]1CCC[C@H](C)N2CN1C(=O)c1c(O)c(=O)c(C(=O)NCc3c(F)cc(F)cc3F)cn12 [Example C23, (1S,2S,6S)-9-hydroxy-2,6-dimethyl-8,10-dioxo-N-(2,4,6-trifluorobenzyl)-3,4,5,6,8,10-hexahydro-2H-1,7-methanopyrido[1,2-b][1,2,5]triazecine-11-carboxamide]	50000	–	–	2.5	–	–	–	14.5	0.29	–
C[C@H]1C=C[C@H](C)N2CN1C(=O)c1c(O)c(=O)c(C(=O)NCc3c(F)cc(F)cc3F)cn12 [Example C26, (1R,2S,5S)-8-hydroxy-2,5-dimethyl-7,9-dioxo-N-(2,4,6-trifluorobenzyl)-2,5,7,9-tetrahydro-1,6-methanopyrido[1,2-b][1,2,5]triazonine-10-carboxamide]	28100	349	0.63	–	–	–	2.4	–	–	–
C[C@H]1CC[C@H](C)N2CN1C(=O)c1c(O)c(=O)c(C(=O)NCc3c(F)cc(F)cc3F)cn12 [Example C28, (1S,2S,5S)-8-hydroxy-2,5-dimethyl-7,9-dioxo-N-(2,4,6-trifluorobenzyl)-2,3,4,5,7,9-hexahydro-1,6-methanopyrido[1,2-b][1,2,5]triazonine-10-carboxamide]	6870	319	0.33	–	–	–	1.4	–	–	–
C[C@@H]1CC(F)(F)[C@H](C)N2CN1n1cc(C(=O)NCc3c(F)cc(F)cc3F)c(=O)c(O)c1C2=O [Example C35, (1S,2R,5S)-4,4-difluoro-8-hydroxy-2,5-dimethyl-7,9-dioxo-N-(2,4,6-trifluorobenzyl)-2,3,4,5,7,9-hexahydro-1,6-methanopyrido[1,2-b][1,2,5]triazonine-10-carboxamide]	29900	–	–	–	188	1.3	1.6	–	–	–
C[C@H]1CCCCN2CN1n1cc(C(=O)NCc3ccc(F)cc3F)c(=O)c(O)c1C2=O [Example C40, (1S,2S)—N-(2,4-difluorobenzyl)-9-hydroxy-2-methyl-8,10-dioxo-3,4,5,6,8,10-hexahydro-2H-1,7-methanopyrido[1,2-b][1,2,5]triazecine-11-carboxamide]	16000	–	–	–	139	1.3	2.1	–	–	–
C[C@H]1C/C=C\CN2CN1n1cc(C(=O)NCc3ccc(F)cc3F)c(=O)c(O)c1C2=O [Example C41, (1S,2S,Z)—N-(2,4-difluorobenzyl)-9-hydroxy-2-methyl-8,10-dioxo-3,6,8,10-tetrahydro-2H-1,7-methanopyrido[1,2-b][1,2,5]triazecine-11-carboxamide]	14200	68.6	0.71	–	–	–	1.2	–	–	–
C[C@H]1C/C=C\CN2CN1n1cc(C(=O)NCc3ccc(F)cc3F)c(=O)c(O)c1C2=O [Example C43, (1R,2S,Z)—N-(2,4-difluorobenzyl)-9-hydroxy-2-methyl-8,10-dioxo-3,6,8,10-tetrahydro-2H-1,7-methanopyrido[1,2-b][1,2,5]triazecine-11-carboxamide]	6110	544	1.68	–	–	–	5.3	–	–	–
CO[C@@H]1C=C[C@H](C)N2CN1n1cc(C(=O)NCc3c(F)cc(F)cc3F)c(=O)c(O)c1C2=O [Example C46, (1R,2R,5S)-8-hydroxy-2-methoxy-5-methyl-7,9-dioxo-N-(2,4,6-trifluorobenzyl)-2,5,7,9-tetrahydro-1,6-methanopyrido[1,2-b][1,2,5]triazonine-10-carboxamide]	27000	–	–	–	468	0.44	1.6	–	–	–
C[C@@H]1C=C[C@H](CF)N2CN1n1cc(C(=O)NCc3ccc(F)cc3F)c(=O)c(O)c1C2=O [Example C49a, (1S,10R,13R)—N-[(2,4-difluorophenyl)methyl]-10-(fluoromethyl)-6-hydroxy-13-methyl-5,8-dioxo-1,2,9-triazatricyclo[7.4.1.02,7]tetradeca-3,6,11-triene-4-carboxamide]	11300	–	–	–	140	0.64	1.2	–	–	–
C[C@@H]1CC[C@H](CF)N2CN1n1cc(C(=O)NCc3ccc(F)cc3F)c(=O)c(O)c1C2=O [Example C49b, (1S,10R,13R)—N-[(2,4-difluorophenyl)methyl]-10-(fluoromethyl)-6-hydroxy-13-methyl-5,8-dioxo-1,2,9-triazatricyclo[7.4.1.02,7]tetradeca-3,6-diene-4-carboxamide]	8930	–	–	–	462	1	1.9	–	–	–
C[C@@H]1CC[C@H](CF)N2CN1n1cc(C(=O)NCc3c(F)cc(F)cc3F)c(=O)c(O)c1C2=O [Example C51, (1S,2R,5R)-5-(fluoromethyl)-8-hydroxy-2-methyl-7,9-dioxo-N-(2,4,6-trifluorobenzyl)-2,3,4,5,7,9-hexahydro-1,6-methanopyrido[1,2-b][1,2,5]triazonine-10-carboxamide]	–	–	–	–	408	2.3	1.3	–	–	9810
C[C@@H]1c2nc[nH]c2[C@H](C)N2CN1n1cc(C(=O)NCc3ccc(F)cc3F)c(=O)c(O)c1C2=O [Example C60, (4R,5S,13S)—N-(2,4-difluorobenzyl)-10-hydroxy-4,13-dimethyl-9,11-dioxo-4,9,11,13-tetrahydro-1H-5,12-methanoimidazo[4,5-g]pyrido[1,2-b][1,2,5]triazonine-8-carboxamide]	50000	–	–	95.7	–	–	–	104	42.6	–
CO[C@@H]1[C@H](OC)[C@H](C)N2CN([C@@H]1C)n1cc(C(=O)NCc3c(F)cc(F)cc3F)c(=O)c(O)c1C2=O [Example C61, (1S,2R,3S,4R,5S)-8-hydroxy-3,4-dimethoxy-2,5-dimethyl-7,9-dioxo-N-(2,4,6-trifluorobenzyl)-2,3,4,5,7,9-hexahydro-1,6-methanopyrido[1,2-b][1,2,5]triazonine-10-carboxamide]	50000	–	–	2.8	–	–	–	1.6	0.76	–
